Laboratory results as given in patent US9228015B2, “Nogo receptor antagonists and methods of increasing neurite outgrowth” (Biogen Idec MA Inc., priority 2006, dated 2016).

Key:
[1] = system: chick dorsal root ganglion neurons, myelin-induced neurite outgrowth inhibition; experiment: Neurite outgrowth of embryonic day 13 chick DRG neurons on myelin (Example 29); type: cell-based; conditions: 8 μM NgR(310)ecto-Fc; MP 10 μg/nl as printed
Procedure: In investigating combined treatment with methyprednisolone (MP) and NgR(310)ecto-Fc for spinal cord injury (SCI), we sought to verify that these reagents have independent mechanisms of action. Briefly, myelin was dried overnight in poly-L-lysine-precoated plates (Becton Dickinson, Bedford, Mass., USA) at 80 or 400 ng/well (2.5 and 12.7 ng/mm^2, respectively). Wells were then coated with 10 µg/ml laminin (Calbiochem, La Jolla, Calif., USA) for 1 hour at foom temperature (22-24 C). Embryonic day 13 chick dorsal root ganglion neurons were dissociated and plated for 6-8 hours as previously described (GrandPre et al., 2000; Fournier et al., 2001). Neurons were treated with 8 μM NgR(310)ecto-Fc in the presence or absence of 10 μg/nl MP (Pharmacia, Kalamazoo, Mich., USA) for the entire outgrowth period. Neurons were then fixed and stained with βIII tubulin antibody (Covance, Princeton, N.J., USA) and neurite outgrowth was quantified using an automated cellular imaging and analysis system (Axon Instrument, Union City, Calif.; USA). Neurite outgrowth per cell was normalized to the average of duplicate control wells for each experiment (n=3). […] These in vitro data support the hypothesis that MP and NgR(310)ecto-Fc will enhance SCI recovery in a sequentially effective manner.

7E11 [2] = experiment: Epitope mapping: 7E11 binding to protease digest peptides of NgR1; set-up: species or system murine; conditions: trypsin or Asp-N digest, MS analysis
Excerpt: The 7E11 binding site was further analyzed by testing tryptic peptide digests of sNgR310. […] 7E11 bound only a single tryptic digest peptide, providing additional evidence that 7E11 binds to a single epitope on NgR1. Subsequent mass spectroscopy (MS) and sequence analyses identified the bound peptide to be […] (SEQ ID NO: 26).
The […] peptide (SEQ ID NO: 1) was subjected to further mapping analysis. The peptide was digested with trypsin, which yielded two major fragments, […] (SEQ ID NO: 27) and VVDPTT (SEQ ID NO: 28), and the ability of 7E11 to bind them was tested. […] Within this peptide fraction, detailed MS analysis identified several scrambled peptides that also bound 7E11, including peptides with deamination at Asn115 and Gln117, addition of Alanine at 112 or 113, or addition of Serine at 114 (Table 3).
The […] (SEQ ID NO:1) peptide was also digested with the endoprotease Asp-N and 7E11 binding was tested. Endoprotease Asp-N cleaved the peptide into 3 peptide fragments, L, DLS and […] (SEQ ID NO: 36). Of these products, 7E11 bound the […] (SEQ ID NO:36) peptide. Taken together, the trypsin and Asp-N cleavage data further localize the 7E11 binding epitope to the sequence shared between them, DNAQLR (SEQ ID NO: 37).

7E11 [3] = experiment: 7E11 binding to immobilized point-mutant peptides (MaxiSorp plate, serial dilutions of 7E11); set-up: species or system murine; conditions: 7E11 binding to immobilized peptide
Excerpt: To verify these contact points, several peptides containing point mutations within the […] sequence (SEQ ID NO: 27) were generated and tested for 7E11 binding. The peptides were immobilized on a MaxiSorp™ plate (Nunc™) and serial dilutions of 7E11 were applied. […] The most significant change in EC50 was observed when Arg 119 was mutated to Alanine.

[4] = system: DRG neurons, myelin-mediated inhibition of neurite outgrowth; experiment: Neurite outgrowth assay, P3-4 rat DRG neurons, myelin mixed with test protein (Example 10); type: cell-based; conditions: mixed with CNS myelin, FIGS. 9-11
Procedure: Lab-Tek® culture slides (4 wells) were coated with 0.1 mg/ml poly-D-lysine (Sigma®). CNS myelin alone or mixed with sNogoR310, sNogoR310-Fc fusion protein, mAb 5B10 or control PBS were separately spotted as 3 μl drops. Fluorescent microspheres (Polysciences) were added to the myelin/PBS to allow later identification of the drops (Grandpre et al., Nature 403:439-444 (2000)). Lab-Tek® slides were then rinsed and coated with 10 μg/ml laminin (Gibco™).
Dorsal root ganglions (DRG's) from P3-4 Sprague Dawley rat pups were dissociated with 1 mg/ml collagenase type 1 (Worthington), triturated with fire-polished Pasteur pipettes pre-plated to enrich in neuronal cells and finally plated at 23,000 cells/well on the pre-coated Labtek culture slides. The culture medium was F12 containing 5% heat inactivated donor horse serum, 5% heat inactivated fetal bovine serum and 50 ng/ml mNGF and incubated at 37° C. and 5% CO2 for 6 hours.
Slides were fixed for 20 minutes with 4% paraformaldehyde containing 20% sucrose and stained for the neuronal marker anti beta-III-tubulin (Covance TUJ1) diluted 1:500. As secondary antibody anti-mouse Alexa Fluor® 594 (Molecular Probes) was diluted 1:300 and slides were coverslipped with Gel/Mount™ (Biømeda™). 5× digital images were acquired with OpenLab™ software and analyzed by using the MetaMorph® software for quantification of neurite outgrowth.

[5] = target: T1, panel of Nogo receptor-1 polypeptides (sNogoR310-Fc, sNogoR344-Fc, p-617, p-618, p-4, p-5) (Rattus norvegicus, UniProt Q99M75); experiment: Antibody specificity ELISA with a panel of Nogo receptor-1 polypeptides; type: binding
T1 construct: made in house
Excerpt: To determine the specificity of the monoclonal and Fab-phage antibodies produced in Examples 1 and 2, we performed an ELISA using a panel of Nogo receptor-1 polypeptides. The panel consisted of sNogoR310-Fc (a fusion protein comprising amino acids 26-310 of rat Nogo receptor-1 and a rat Fc fragment), sNogoR344-Fc (see supra), polypeptide p-617 (SEQ ID NO: 1), polypeptide p-618 (a 19-amino acid polypeptide from the LRR7 region of rat Nogo receptor-1; FIG. 2; SEQ ID NO: 11) and polypeptides p-4 and p-5 (polypeptides from the LRR5 and LRRCT regions of Nogo receptor-1, respectively). Ovalbumin and BSA were used as controls.

MAG + sNogoR344-Fc = target: T2, MAG + sNogoR344-Fc (Rattus norvegicus, UniProt Q99M75, A303T/C287S/C43R/E284G/T53A); experiment: ELISA: inhibition of MAG binding to sNogoR344-Fc
T2 construct: amino acid residues 26-344 of rat Nogo receptor-1; made in house; CHO (DG44) is described only for sNogoR310-Fc
T2 sequence (Q99M75 26-344 C43R/T53A/E284G/C287S/A303T): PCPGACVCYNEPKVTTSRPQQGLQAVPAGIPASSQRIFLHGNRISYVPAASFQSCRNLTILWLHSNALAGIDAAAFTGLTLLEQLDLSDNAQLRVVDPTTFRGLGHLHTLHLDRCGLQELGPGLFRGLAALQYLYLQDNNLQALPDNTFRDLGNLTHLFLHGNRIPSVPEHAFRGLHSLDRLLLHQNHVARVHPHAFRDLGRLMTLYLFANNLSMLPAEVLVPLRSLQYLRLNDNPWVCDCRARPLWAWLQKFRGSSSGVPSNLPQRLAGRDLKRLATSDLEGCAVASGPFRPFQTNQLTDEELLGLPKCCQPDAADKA
Procedure: (§1) 0.5 μg of a soluble Nogo receptor-1 fusion protein comprising amino acid residues 26-344 of rat Nogo receptor-1 and the hinge and Fc region of the rat IgG1 molecule (sNogoR344-Fc) produced as described below was immobilized on […] of protein-A- or wheatgerm agglutinin-conjugated SPA beads (Amersham Pharmacia Biotech) for 2 hours at 25° C. SPA beads coupled with Fc-sNogoR-1, anti-Nogo receptor-1 mAb and 1 μl ^125I-Nogo66 (Amersham, 2000 Ci/mmol, 1 nM) in […] of the HEPES-buffered incubation medium (10 mM HEPES, pH 7.4, 0.1% bovine serum albumin, 0.1% ovalbumin, 2 mM MgCl2, 2 mM CaCl2 and protease inhibitors) was added to each sample well. After 16 hours, radioactivity was measured in quadruplicate samples using a TopCount® (Packard). IC50 values were calculated from a curve-fit analysis (FIG. 3) (PRISM, GraphPad Software, NJ). In some experiments, we also used AP-ligand conjugates (e.g. AP-Nogo66) and detected binding by monitoring alkaline phosphatase activity. We also assayed the ability of the mAbs to block binding of the ligands MAG-Fc and AP-OM-gp to Nogo receptor-1.
(§2) Monoclonal antibodies 7E11, 5B10, 1H2, 3G5 and 2F7 all inhibited binding of Nogo66, MAG and OM-gp to sNogoR344-Fc. The calculated IC50 for Nogo66 for 7E11 and 1H2 were 400 nM and 60 nM, respectively. The data from ELISAs monitoring mAb-mediated inhibition of binding of the three ligands to Nogo receptor-1 are summarized in Table 6.
(§3) The percent displacement is shown at 30 nM antibody and the EC50 for certain mAbs determined from curve-fit analysis as described. “-” indicates no detectable activity and “ND” indicates not determined.
(§4) We also performed ELISA binding assays using the Fab-phage 141)5.

OM-gp + sNogoR344-Fc = target: T3, OM-gp + sNogoR344-Fc (Rattus norvegicus, UniProt Q99M75, A303T/C287S/C43R/E284G/T53A); experiment: ELISA: inhibition of OM-gp binding to sNogoR344-Fc
T3 construct: amino acid residues 26-344 of rat Nogo receptor-1; made in house; CHO (DG44) is described only for sNogoR310-Fc
T3 sequence (Q99M75 26-344 C43R/T53A/E284G/C287S/A303T): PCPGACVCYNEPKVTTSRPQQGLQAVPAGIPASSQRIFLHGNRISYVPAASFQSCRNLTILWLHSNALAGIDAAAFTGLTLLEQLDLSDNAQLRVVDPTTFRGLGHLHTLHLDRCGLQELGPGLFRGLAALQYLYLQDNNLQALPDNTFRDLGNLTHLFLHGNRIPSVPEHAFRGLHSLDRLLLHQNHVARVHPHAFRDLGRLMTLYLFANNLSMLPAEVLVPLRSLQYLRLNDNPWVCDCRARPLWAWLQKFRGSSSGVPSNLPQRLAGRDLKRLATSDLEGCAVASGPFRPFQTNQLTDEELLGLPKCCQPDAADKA
Procedure: as §1, §2, §3, §4

Nogo66 + sNogoR344-Fc = target: T4, Nogo66 + sNogoR344-Fc (Rattus norvegicus, UniProt Q99M75, A303T/C287S/C43R/E284G/T53A); experiment: ELISA: inhibition of Nogo66 binding to sNogoR344-Fc
T4 construct: amino acid residues 26-344 of rat Nogo receptor-1; made in house
T4 sequence (Q99M75 26-344 C43R/T53A/E284G/C287S/A303T): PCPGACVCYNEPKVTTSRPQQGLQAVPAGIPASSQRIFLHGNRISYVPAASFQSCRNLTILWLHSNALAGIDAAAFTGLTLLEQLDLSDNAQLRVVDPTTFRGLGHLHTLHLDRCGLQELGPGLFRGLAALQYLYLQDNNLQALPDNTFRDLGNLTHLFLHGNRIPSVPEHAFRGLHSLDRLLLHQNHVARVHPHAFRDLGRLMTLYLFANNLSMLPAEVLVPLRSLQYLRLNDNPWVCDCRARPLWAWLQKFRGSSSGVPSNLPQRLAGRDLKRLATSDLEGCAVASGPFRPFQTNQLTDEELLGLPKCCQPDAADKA
Procedure: as §1, §2, §3, §4

[6] = system: NogoA, NogoB, NogoC, MAG and OM-gp binding to Nogo receptor-1; experiment: Soluble Nogo receptors block ligand binding to Nogo receptor-1

With `C[C@H]1C[C@@H]2[C@H]([C@@H](O)C[C@@]3(C)[C@H]2CC[C@]3(O)C(=O)CO)[C@@]2(C)C=CC(=O)C=C12` [MP, methylprednisolone, reference compound] the “effect on neurite outgrowth on a myelin substrate” value [1] was “no effect”.

With “AAAFTGLTLLEQLDLSDNAQLR (Rattus) [tryptic digest peptide of sNgR310]” the “peptide bound by 7E11” value (7E11 [2]) was “bound”.

With “DNAQLRVVDPTT (sequence also found in Rattus; listed as Homo Sapiens)” the “peptide bound by 7E11” value (7E11 [2]) was “bound”.

With LDLSDNAALRVVDPTT [Q117A] the “increase of EC50 relative to the original peptide” value (7E11 [3]) was 30 fold.

For LDLSDNAQLHVVDPTT [R119H], the “increase of EC50 relative to the original peptide” value (7E11 [3]) was 25 fold.

For “LDLSDNAQLR (sequence also found in Rattus; listed as Homo Sapiens)”, the “peptide bound by 7E11” value (7E11 [2]) was “bound”.

B1: 5B10: murine monoclonal anti-Nogo receptor-1 antibody, immunogen rat Nogo receptor-1 residues 110-125, ATCC PTA-4588 (antibody, V domains shown)
VH: LQXSGAEIVMPGTAVTMSCKASGYTFTDFWMHWVKQRPGQGLEWIGAIDPSDSYSRINQKFKGKATLTVDESSSTAYMQLSSLTSEDSAVYYCARRITEAGAWFAYWGQGTTVT
VL: MKLPVRLLVLMFWIPASSSDVVMTQTPLSLPVSLGDQASISCRSSQSLVHSNGYTYLHWYLQRPGQSPKLLIYKVSNRFSGVPDRFSGSGSGTDFTLKISRVDAEDLGVYFCSQSTHVPYTFGGGTKLEIKRADAAPTVSISHH
modifications: not fully specified; 5B10 heavy chain; 5B10 light chain
In the case of B1, the “protection of DRG neurons from myelin-mediated inhibition of neurite outgrowth” value [4] is reported as “protected”, the “binding to polypeptide p-617 (SEQ ID NO: 1)” value [5] is reported as “specifically bound” and the “inhibition of binding of MAG to sNogoR344-Fc” value (MAG + sNogoR344-Fc) is reported as “inhibited”. For the same molecule, the “inhibition of binding of OM-gp to sNogoR344-Fc” value (OM-gp + sNogoR344-Fc) was “inhibited” and the “inhibition of binding of Nogo66 to sNogoR344-Fc” value (Nogo66 + sNogoR344-Fc) was “inhibited”.

B2: sNogoR344: soluble Nogo receptor-1 polypeptide, residues 26-344 of SEQ ID NOs: 6 and 8 or 27-344 of SEQ ID NO: 8 (protein, listed as Homo sapiens)
chain: PCPGACVCYNEPKVTTSCPQQGLQAVPVGIPAASQRIFLHGNRISHVPAASFRACRNLTILWLHSNVLARIDAAAFTGLALLEQLDLSDNAQLRSVDPATFHGLGRLHTLHLDRCGLQELGPGLFRGLAALQYLYLQDNALQALPDDTFRDLGNLTHLFLHGNRISSVPERAFRGLHSLDRLLLHQNRVAHVHPHAFRDLGRLMTLYLFANNLSALPTEALAPLRALQYLRLNDNPWVCDCRARPLWAWLQKFRGSSSEVPCSLPQRLAGRDLKRLAANDLQGCAVATGPYHPIWTGRATDEEPLGLPKCCQPDAADKA
With B2 the “block of binding of NogoA, NogoB, NogoC, MAG and OM-gp to Nogo receptor-1” value [6] was “block”.
